Columns and labels:
[1] = target: T1, A disintegrin and metalloproteinase with thrombospondin motifs 5 (Bos taurus, UniProt Q9TT92); assay: Ex vivo inhibition of ADAMTS-5-mediated aggrecan degradation in IL-1-stimulated bovine cartilage explant
T1 sequence (Q9TT92 whole entry): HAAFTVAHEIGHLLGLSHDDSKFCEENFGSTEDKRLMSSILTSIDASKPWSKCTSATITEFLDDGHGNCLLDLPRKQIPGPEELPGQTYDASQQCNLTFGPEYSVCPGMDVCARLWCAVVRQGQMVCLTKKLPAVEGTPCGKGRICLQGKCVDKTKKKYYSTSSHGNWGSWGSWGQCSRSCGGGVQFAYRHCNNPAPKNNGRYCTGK

[2] = target: 72 kDa type IV collagenase (Homo sapiens, UniProt P08253); assay: Inhibition of MMP2 (unknown origin) by FRET method
[3] = target: T2, A disintegrin and metalloproteinase with thrombospondin motifs 5 (Homo sapiens, UniProt Q9UNA0); assay: Inhibition of human His-tagged ADAMTS-5 using QF-peptide as substrate by FRET method
T2 sequence (Q9UNA0 whole entry): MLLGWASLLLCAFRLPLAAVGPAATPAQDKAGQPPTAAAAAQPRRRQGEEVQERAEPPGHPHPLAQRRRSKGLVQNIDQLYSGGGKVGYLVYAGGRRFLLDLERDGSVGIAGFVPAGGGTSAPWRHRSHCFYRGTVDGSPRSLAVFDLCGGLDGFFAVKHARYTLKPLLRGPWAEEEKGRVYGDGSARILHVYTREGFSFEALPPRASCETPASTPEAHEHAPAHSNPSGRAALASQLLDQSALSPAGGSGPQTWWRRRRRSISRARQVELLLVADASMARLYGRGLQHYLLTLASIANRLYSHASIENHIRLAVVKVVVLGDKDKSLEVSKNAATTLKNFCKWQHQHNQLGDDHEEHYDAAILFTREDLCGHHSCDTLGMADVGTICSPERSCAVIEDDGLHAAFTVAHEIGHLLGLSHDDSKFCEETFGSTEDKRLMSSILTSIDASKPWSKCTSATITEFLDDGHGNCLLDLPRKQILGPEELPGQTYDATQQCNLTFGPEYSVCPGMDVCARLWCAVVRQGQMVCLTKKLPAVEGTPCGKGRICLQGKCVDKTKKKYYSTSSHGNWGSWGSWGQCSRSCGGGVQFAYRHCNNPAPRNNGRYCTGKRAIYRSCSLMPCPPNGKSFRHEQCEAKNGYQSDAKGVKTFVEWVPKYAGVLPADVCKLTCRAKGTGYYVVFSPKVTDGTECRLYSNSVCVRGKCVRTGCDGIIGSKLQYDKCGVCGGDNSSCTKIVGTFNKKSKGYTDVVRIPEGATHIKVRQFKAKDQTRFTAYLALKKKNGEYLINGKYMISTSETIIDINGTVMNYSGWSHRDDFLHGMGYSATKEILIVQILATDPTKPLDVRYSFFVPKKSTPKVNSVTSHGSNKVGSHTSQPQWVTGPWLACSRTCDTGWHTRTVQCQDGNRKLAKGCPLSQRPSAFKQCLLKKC

72 kDa type IV collagenase, sequence (P08253 whole entry): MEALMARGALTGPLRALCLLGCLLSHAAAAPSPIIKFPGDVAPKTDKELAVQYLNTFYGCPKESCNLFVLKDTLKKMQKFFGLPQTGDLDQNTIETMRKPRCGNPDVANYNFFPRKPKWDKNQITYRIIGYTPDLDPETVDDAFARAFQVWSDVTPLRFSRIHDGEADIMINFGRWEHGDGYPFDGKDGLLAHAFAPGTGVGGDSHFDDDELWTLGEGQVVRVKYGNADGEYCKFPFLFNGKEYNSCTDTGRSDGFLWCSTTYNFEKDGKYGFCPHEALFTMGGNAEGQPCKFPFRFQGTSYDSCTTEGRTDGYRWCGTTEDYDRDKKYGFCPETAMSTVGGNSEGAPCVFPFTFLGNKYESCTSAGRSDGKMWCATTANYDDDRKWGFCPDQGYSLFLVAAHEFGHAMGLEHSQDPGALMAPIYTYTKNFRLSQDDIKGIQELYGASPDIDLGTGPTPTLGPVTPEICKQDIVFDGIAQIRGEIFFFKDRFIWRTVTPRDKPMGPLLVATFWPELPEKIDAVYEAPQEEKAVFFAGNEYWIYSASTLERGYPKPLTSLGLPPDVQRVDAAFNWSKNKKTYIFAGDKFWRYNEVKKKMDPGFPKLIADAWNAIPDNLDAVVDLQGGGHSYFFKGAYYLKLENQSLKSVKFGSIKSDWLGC

IC50 [1]: 22 µM | IC50 [2]: > 30 µM | IC50 [3]: 0.23 µM
SMILES: O=C(O)CCc1sc(/C=C2\NC(=O)CS2)nc1-c1ccccn1

From ChEMBL document CHEMBL2346648, “A series of thiazole derivatives bearing thiazolidin-4-one as non-competitive ADAMTS-5 (aggrecanase-2) inhibitors” (Bioorg Med Chem Lett, 2013)
